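Five compound concentrations were applied to cells in 96-well plates for 48 hours; endpoints were derived by simple linear interpolation of the resulting dose-response curve. TGI marks complete inhibition of growth.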

Test systems include K-562 leukemia; OVCAR-8 ovarian; SW-620 colon; HL-60(TB) leukemia; HCT-116 colon; UACC-62 melanoma; RPMI-8226 leukemia; NCI-H226 lung; NCI-H522 lung; LOX IMVI melanoma; EKVX NSCLC; CAKI-1 renal; SNB-75 CNS; KM12 colon; CCRF-CEM leukemia; SK-MEL-28 melanoma; SF-539 CNS; HOP-62 NSCLC; IGROV1 ovarian; SNB-19 CNS.
Holding throughout (assay): NCI anticancer screen, dose series, 48 h

Take `COc1cccc(NC(=O)C(=O)C(C(=O)c2ccccc2F)C2OC(=O)c3ccccc32)c1` (centres undefined): the TGI was over 100 µM in the experiment on K-562 leukemia; 60.9 µM with OVCAR-8 ovarian; over 100 µM in the experiment on SW-620 colon; 54.1 µM in the experiment with HL-60(TB) leukemia; 46.1 µM in the experiment with HCT-116 colon; over 100 µM with UACC-62 melanoma. Moreover, the TGI is 96.1 µM with RPMI-8226 leukemia; 63.5 µM in the experiment on NCI-H226 lung; 40.7 µM with NCI-H522 lung; 63.3 µM in the experiment with LOX IMVI melanoma; over 100 µM with EKVX NSCLC; over 100 µM in the experiment on CAKI-1 renal. In addition, the TGI is 70.9 µM in the experiment with SNB-75 CNS; over 100 µM in the experiment on KM12 colon; 62.3 µM in the experiment on CCRF-CEM leukemia; over 100 µM in the experiment with SK-MEL-28 melanoma; 57.3 µM in the experiment on SF-539 CNS; over 100 µM in the experiment with HOP-62 NSCLC. The TGI in the experiment on IGROV1 ovarian and in the experiment with SNB-19 CNS was over 100 µM each time.
As to `COC(=O)C1=C(OC(=O)/C=C/c2ccc(Cl)cc2)C(C(=O)OC)[C@@]2(O)[C@@H](C(=O)OC)[C@H](C)C[C@@H]1[C@@H]2C(=O)OC` (some centres undefined), the TGI in the experiment on K-562 leukemia is over 100 µM; with OVCAR-8 ovarian, 41.6 µM; in the experiment on SW-620 colon, over 100 µM; in the experiment with HL-60(TB) leukemia, 36.1 µM; with HCT-116 colon, 58.3 µM; in the experiment with UACC-62 melanoma, 54.1 µM. Further, the TGI in the experiment on NCI-H226 lung is 61 µM; in the experiment with NCI-H522 lung, 23.1 µM; in the experiment on LOX IMVI melanoma, 37.7 µM; with EKVX NSCLC it was 71.8 µM; in the experiment with CAKI-1 renal, 87.3 µM; in the experiment on SNB-75 CNS, over 100 µM. In addition, the TGI was over 100 µM in the experiment on KM12 colon; 64.8 µM in the experiment on CCRF-CEM leukemia; 88.7 µM in the experiment on SK-MEL-28 melanoma; over 100 µM in the experiment with SF-539 CNS; over 100 µM in the experiment with HOP-62 NSCLC; 23.1 µM in the experiment on IGROV1 ovarian. The compound further showed a TGI with SNB-19 CNS of over 100 µM.
Take `COC1(O)c2cccc(Cl)c2C(=O)N1C1(C(N)=O)CCCCC1` (centres undefined): the TGI in the experiment on K-562 leukemia, in the experiment with OVCAR-8 ovarian, in the experiment on SW-620 colon, in the experiment on HL-60(TB) leukemia, with HCT-116 colon and in the experiment with UACC-62 melanoma was over 100 µM each time. Moreover, the TGI in the experiment with RPMI-8226 leukemia, in the experiment with NCI-H226 lung, in the experiment with NCI-H522 lung, in the experiment with LOX IMVI melanoma, with EKVX NSCLC and with CAKI-1 renal was over 100 µM in each case. For the same compound, the TGI in the experiment with SNB-75 CNS, in the experiment with KM12 colon, with CCRF-CEM leukemia, with SK-MEL-28 melanoma, with SF-539 CNS and in the experiment with HOP-62 NSCLC was over 100 µM throughout. Besides, the TGI in the experiment on IGROV1 ovarian and in the experiment on SNB-19 CNS was over 100 µM each time.
Turning to `O=C(O)C12CCCCC1CCCC2` (centres undefined), the TGI with K-562 leukemia, in the experiment with OVCAR-8 ovarian, in the experiment with SW-620 colon, in the experiment with HL-60(TB) leukemia, in the experiment with HCT-116 colon and with UACC-62 melanoma was over 100 µM in each case. Besides, the TGI with RPMI-8226 leukemia, with NCI-H226 lung, in the experiment with NCI-H522 lung, with LOX IMVI melanoma, in the experiment with EKVX NSCLC and with CAKI-1 renal was over 100 µM each time. The TGI in the experiment on SNB-75 CNS, with KM12 colon, in the experiment with CCRF-CEM leukemia, in the experiment on SK-MEL-28 melanoma, in the experiment with SF-539 CNS and in the experiment with HOP-62 NSCLC was over 100 µM throughout. Further, the TGI with IGROV1 ovarian and with SNB-19 CNS was over 100 µM in each case.
Consider `NC12CCC(CC1=O)C2` (centres undefined), for which the TGI with K-562 leukemia, in the experiment with OVCAR-8 ovarian, with SW-620 colon, in the experiment on HL-60(TB) leukemia, with HCT-116 colon and with UACC-62 melanoma was over 100 µM in each case. Moreover, the TGI in the experiment on RPMI-8226 leukemia, in the experiment with NCI-H226 lung, with LOX IMVI melanoma, in the experiment with EKVX NSCLC, in the experiment with SNB-75 CNS and with KM12 colon was over 100 µM in each case. The TGI with CCRF-CEM leukemia, with SK-MEL-28 melanoma, in the experiment on SF-539 CNS, with HOP-62 NSCLC and with IGROV1 ovarian was over 100 µM throughout.
Turning to `O=C1C=CC(=O)c2c1ccc1c3ccccc3n(-c3ccccc3[N+](=O)[O-])c21`, the TGI with K-562 leukemia was over 100 µM; in the experiment on SW-620 colon, over 100 µM; with HCT-116 colon it was over 25.3 µM; with UACC-62 melanoma, 10.2 µM; in the experiment on RPMI-8226 leukemia it was over 24.1 µM; with NCI-H226 lung, 50.3 µM. Besides, the TGI with NCI-H522 lung turned out to be 2.87 µM; in the experiment with LOX IMVI melanoma, 4.76 µM; in the experiment on EKVX NSCLC it was 23.7 µM; with CAKI-1 renal it was 3.64 µM; in the experiment on SNB-75 CNS, 35.7 µM; in the experiment with KM12 colon it was 35.8 µM. For the same compound, the TGI with CCRF-CEM leukemia is over 31.6 µM; in the experiment with SK-MEL-28 melanoma it was 50.8 µM; in the experiment with SF-539 CNS it was over 65.2 µM; with HOP-62 NSCLC, over 53.7 µM; with IGROV1 ovarian, 4.9 µM; with SNB-19 CNS it was 29.3 µM.
Regarding `COc1cc2c(cc1OC)C(=O)/C(=C/c1cc(OC)c(OC)c(OC)c1)C2`, the TGI with K-562 leukemia, in the experiment with OVCAR-8 ovarian, with HL-60(TB) leukemia, with UACC-62 melanoma, with RPMI-8226 leukemia and in the experiment on NCI-H226 lung was over 100 µM throughout. The TGI with NCI-H522 lung was 51 µM; in the experiment with CAKI-1 renal it was over 100 µM; with SNB-75 CNS, over 100 µM; in the experiment with KM12 colon it was over 100 µM; in the experiment on CCRF-CEM leukemia, over 100 µM; in the experiment on SK-MEL-28 melanoma, over 100 µM. Besides, the TGI with HOP-62 NSCLC, in the experiment with IGROV1 ovarian and in the experiment on SNB-19 CNS was over 100 µM in each case.

For the origin of these results see PubChem BioAssay (NCI).
